Publication PMC11374660, “The novel family of Warbicin® compounds inhibits glucose uptake both in yeast and human cells and restrains cancer cell proliferation” (Frontiers in Oncology, 2024)
pIC50: −log10 of the molar value.

Columns and labels:
[1] = system: A549 lung adenocarcinoma cells; experiment: Proliferation of A549 lung adenocarcinoma cells; format: cell-based, human; details: for Selected from primary screen for growth inhibition of A549 cells at 50 µM: RPMI 1 mM glucose; for Selected for having an IC50 ratio (10 mM glucose : 1 mM glucose) of A549 growth higher than WBC-A: ratio of IC50 on 10 mM and 1 mM glucose, compared to WBC-A
Description: For both adherent A549 and MCF10A H-RAS^V12 cell lines, growth curves were established using the IncuCyte® ZOOM technology. By collecting phase contrast images, the IncuCyte® software provides a calculated confluency percentage from which growth curves can be deducted. The cell number/density was measured by calculating the confluency of phase objects (cells) sticking on the bottom of the well. Cells were seeded at a density of 1000 - 1500 cells/well in a Nunc-Edge™ 96-well plate (Thermo Fisher Scientific) and growth was typically measured over 3 to 5 days. For the measurement of apoptosis induction using the MCF10A H-RAS^V12 cell line, the IncuCyte® Caspase-3/7 green dye was added to the medium in the recommended concentration at the beginning of the growth curve experiment. Apoptosis was detected by taking fluorescent images by excitation at 488 nm followed by IncuCyte® software analysis. Cell growth of the KMS-12-PE multiple myeloma cell line, which grows in suspension, was measured by manual cell counting. Cells were initially seeded at a density of 10^4 cells/well and incubated for 4 days after which the cell number was counted. For all cell lines, the same medium used for pregrowth was also used for the growth curve experiment, albeit with different glucose concentrations depending on the experimental design. With compound administration, the final concentration of DMSO never exceeded 0.1%. Typically, at least four technical repeats were included per condition.

[2] = system: yeast tps1Δ strain; experiment: Growth (rescue) of the yeast tps1Δ strain on galactose with or without glucose; format: cell-based, S. cerevisiae; details: 2.5 mM glucose
Description: Growth curves were made by measuring OD595 in a 96-well plate using the Multiskan™ FC Microplate Photometer (Thermo Fisher Scientific). Typically, for tps1Δ rescue experiments, cells were (pre)grown in Complete Synthetic medium containing 110 mM galactose. Compounds were always added 10 min prior to glucose addition to ensure maximal interaction between the cells and compounds. Cells originating from the preculture were harvested, washed in medium without sugar, after which they were resuspended to an OD of 0.1 in 200 µL of the appropriate medium. At least three technical replicates were included per condition. OD595 was measured at 30°C every 30 min with a 10-min shaking interval.

[3] = system: glucose uptake by tps1Δ yeast cells; experiment: Zero-trans uptake of radioactive glucose in tps1Δ yeast cells; format: cell-based, S. cerevisiae; details: tps1∆ cells, 2.5 mM glucose; read-out: IC50 values for 2.5 mM glucose uptake in tps1∆ cells
Description: Zero-trans uptake of radioactively labeled [U-^14C]glucose, [U-^14C]fructose or [U-^14C]galactose by S. cerevisiae cells was determined in accordance with previous studies ([45], [75]). Cells were grown on different carbon sources depending on the experiment. For measuring glucose uptake activity in the tps1Δ and tps1Δ hxtΔ strains, cells were grown on YP medium containing 325 mM glycerol (measurement of 10 s). Typically, for compound characterization and kinetic studies in wild type and tps1Δ strains, cells were (pre)grown on Complete Synthetic medium supplemented with 110 mM galactose (measurement of 10 s). In the experiments on the influence of hexokinase activity on the sugar uptake rate, the measurement duration was shortened to 5 s and cells were always grown on YP medium containing 325 mM glycerol and 430 mM ethanol. After harvesting, cells were washed twice with ice-cold 25 mM MES-buffer pH 6, and resuspended in their respective medium without sugar to a final concentration of 45 mg (wet weight)/mL. The amount of added tracer was estimated to give a response close to at least 1000 counts per min in order to adequately counter background noise. Cells were first preincubated for 10 min at 30°C with the compound to acclimate the cells to the temperature and to allow adequate interaction with the compound prior to uptake. Next, hexose sugar was mixed with the cell suspension, which was then incubated at 30°C for 5 or 10 s, depending on the experiment, after which the cells were rapidly filtered over a glass microfiber filter (Whatman GF/C) and washed three times with ice-cold dH2O. The loaded filter was transferred to a scintillation vial containing 3 mL liquid scintillation cocktail (Ultima-Flo M, Perkin Elmer) and counted using the Hidex 300 SL. Three blank measurements per strain were typically included to account for background signal, for which the cells were first quenched before adding the radioactive label.

Row | SMILES | Selected from primary screen for growth inhibition of A549 cells at 50 µM ([1]; 50 µM) | Rescue of the tps1∆ strain on 2.5 mM glucose at 100 µM [2] | Minimal rescue concentration for growth of tps1∆ cells on 2.5 mM glucose [2] | pIC50 [3] | Selected for having an IC50 ratio (10 mM glucose : 1 mM glucose) of A549 growth higher than WBC-A [1] | inhibition of A549 cell proliferation in prescreening ([1]; 50 µM, 1 mM glucose, three days)
1 | Cc1nc(SCCN2CCOC2=O)c2c(-c3cccs3)csc2n1 [WBC-26C] | No | Yes | 25 µM | 4.62 | – | –
2 | Cc1nc(SCC(=O)NC(N)=O)c2c(-c3cccs3)csc2n1 [WBC-6B] | Yes | Yes | 12.5 µM | 4.99 | Lower IC50 ratio | –
3 | Cc1nc(SCC(=O)N(C)CCC#N)c2c(-c3cccs3)csc2n1 [WBC-7B] | No | Yes | 6.25 µM | 5.27 | – | –
4 | CCCc1nnc(Sc2nc(C)nc3scc(-c4cccs4)c23)[nH]1 [WBC-50C] | Yes | Yes | 50 µM | 4.17 | Lower IC50 ratio | –
5 | CCn1c(Sc2nc(C)nc3scc(-c4cccs4)c23)nnc1-c1ccncc1 [WBC-43C] | Yes | Yes | 12.5 µM | 5.05 | – | –
6 | COC(=O)CSc1nc(C)nc2scc(-c3cccs3)c12 [WBC-53A] | No | Yes | 12.5 µM | 4.57 | – | –
7 | Cc1nc(SCC(=O)N2CC(C)OC(C)C2)c2c(-c3cccs3)csc2n1 (stereo not drawn) [WBC-5B] | No | Yes | 12.5 µM | 4.65 | – | –
8 | CCn1c(CCC(N)=O)nnc1Sc1nc(C)nc2scc(-c3cccs3)c12 [WBC-16C] | Yes | Yes | 50 µM | 4.30 | Lower IC50 ratio | –
9 | Cc1nc(SCC(=O)Nc2cc(C)on2)c2c(-c3cccs3)csc2n1 [WBC-10C] | Yes | Yes | 6.25 µM | 4.61 | Lower IC50 ratio | –
10 | CC(=O)NCc1ccc(C(=O)CSc2nc(C)nc3scc(-c4cccs4)c23)o1 [WBC-29B] | No | Yes | 6.25 µM | 5.03 | – | –
11 | COCCCNC(=O)CSc1nc(C)nc2scc(-c3cccs3)c12 [WBC-15B] | No | Yes | 25 µM | 4.49 | – | –
12 | Cc1nc(SCCN2CCOCC2)c2c(-c3cccs3)csc2n1 [WBC-44A] | Yes | Yes | 50 µM | 4.21 | Lower IC50 ratio | –
13 | C=C1[C@@H](C)[C@H]2[C@H](Cc3ccccc3)NC(=O)[C@]23OC(=O)/C=C/[C@H](O)CCC[C@@H](C)C/C=C/[C@H]3[C@@H]1O [Cytochalasin B, reference compound] | – | – | – | – | – | the strongest inhibitor of cell proliferation in this assay
